Data from article PMC11881559 (Antimicrobial Agents and Chemotherapy, 2025).
Values joined by “and” are separate entries in the source; they are usually repeats but may differ in a detail not shown here. Equal values may be shown once.

Tests used:
[1] = Preclinical toxicology, NOAEL in dogs; type: in vivo; conditions: from dog NOAEL, at 60 kg body weight
[2] = Single ascending dose (SAD) study, plasma PK; type: in vivo, human; conditions: for AUC0-t / AUC0-∞ / Cmax / MRT0-∞ / λz: mean (%CV); for t1/2: mean ± SD; for Tmax: median (range)
Description: For the MAD and food-effect studies, the doses were chosen according to the PK and safety results of the SAD study. […] The tablets were administered from the lowest dosage. The next highest dose level was initiated based on PK characteristics and a 5-day safety observation of the previous dose by the investigators and sponsors. […] This study included two groups: one group under feeding conditions (a high-fat diet comprising 110 g of boiled eggs, 240 mL of milk, 20 g of bacon, 20 g of butter, 50 g of toast, 10 g of salad oil, and 115 g of chips consumed within 30 min before dosing) and one group under fasting conditions. […] Interventions for all cohorts, except the 200 mg cohort, were conducted at the First Hospital of Jilin University (Changchun, China). The randomization lists were created using the PLAN statistical procedure in SAS 9.4 software (SAS Institute, Cary, NC, USA). Throughout the study, unblinding was only used in the event of SAEs or other emergency situations; otherwise, blinding was maintained for investigators, participants, and sponsors until the study’s completion.
For the SAD, food-effect, and DDI studies, blood samples were collected before dose administration and at 15 min, 30 min, and 1, 1.5, 2, 3, 4, 6, 8, 12, 24, 36, 48, 72, and 96 h after dose administration. We used collection tubes containing the anticoagulant EDTA for PK assessments. In the MAD study, blood samples were obtained on day 1 at 0 h, 15 min, 30 min, and 1, 1.5, 2, 3, 4, 6, 8, and 12 h after dosing; on days 2–4; and on day 5 at 0 h, 15 min, 30 min, and 1, 1.5, 2, 3, 4, 6, 8, 12, 24, 36, 48, 72, and 96 h after dosing. The […] samples were subsequently centrifuged at 1,300 × g for 10 min at 2–8°C. For the food-effect component, urine samples were collected in tubes containing 0.01% Triton X-100 at the following intervals: 0, 0–6, 6–12, 12–24, 24–48, 48–72, 72–96, 96–120, 120–144, 144–168, and 168–192 h after administration. Fecal samples were collected from 0 h to 192 h after the first dose. All the samples were stored at −80°C.
The standard curve concentrations ranged from 5 to 5,000 ng/mL, 10 to 10,000 ng/mL, and 5 to 5,000 µg/g in the plasma, urine, and fecal samples, respectively. The lower limits of quantification were 5.00 ng/mL, 10.00 ng/mL, and 5.00 µg/g for the plasma, urine, and fecal samples, respectively.
The noncompartmental model (Phoenix WinNonlin ver. 8.2.2.227, Certara, Princeton, USA) was used to calculate the PK parameters: time to maximum observed plasma concentration (Tmax); maximum observed plasma concentration (Cmax); area under the concentration-time curve from the time of dosing to the last time point with measurable plasma concentrations of drug (AUC0-t); AUC from the time of dosing extrapolated to infinity (AUC0-∞); terminal elimination half-life of the drug in plasma (t1/2); clearance (CL/F); volume (Vz/F); terminal phase elimination rate constant (λz); and mean retention time (MRT). The power model was used to evaluate the relationship between PK parameters and the dose level, expressed as ln (PK parameter) = ln (α) + β * ln (dose), where ln (α) is the intercept of the transformed linear regression equation and β is the slope. Upon calculating the 90% CI of β, if the entire 90% CI of β falls within the judgment interval, the PK parameters can be deemed linearly related to the dosage.

[3] = Multiple ascending dose (MAD) study, plasma PK; conditions: for t1/2: mean ± SD

O=C(NC1CCCC1)C(=O)[C@H](C[C@@H]1CCNC1=O)NC(=O)[C@@H]1[C@H]2CCC[C@H]2CN1C(=O)[C@@H](NC(=O)C(F)(F)F)C1CCCCC1 [RAY1216, leritrelvir]
human equivalent dose [1]: ~21,000 mg/day | AUC0-t ([2]; 200 mg single dose): 5,510 (22.7) ng·h/mL | AUC0-∞ ([2]; 200 mg single dose): 5,550 (22.7) ng·h/mL | Cmax ([2]; 200 mg single dose): 1,270 (42) ng/mL | MRT0-∞ ([2]; 200 mg single dose): 5.01 (13.5) h | λz ([2]; 200 mg single dose): 0.214 (6.2) h^−1 | t1/2 ([2]; 200 mg single dose): 3.25 ± 0.202 h | Tmax ([2]; 200 mg single dose): 1.5 (0.5, 2.0) h | AUC0-t ([2]; 400 mg single dose): 11,700 (45.8) ng·h/mL | AUC0-∞ ([2]; 400 mg single dose): 11,700 (45.6) ng·h/mL | Cmax ([2]; 400 mg single dose): 2,250 (53.8) ng/mL | MRT0-∞ ([2]; 400 mg single dose): 6.05 (9.9) h | λz ([2]; 400 mg single dose): 0.172 (36) h^−1 | t1/2 ([2]; 400 mg single dose): 4.83 ± 2.86 h | Tmax ([2]; 400 mg single dose): 1.3 (1.0, 4.0) h | AUC0-t ([2]; 800 mg single dose): 16,200 (18.7) ng·h/mL | AUC0-∞ ([2]; 800 mg single dose): 16,300 (18.8) ng·h/mL | Cmax ([2]; 800 mg single dose): 3,590 (20.2) ng/mL | MRT0-∞ ([2]; 800 mg single dose): 6.75 (38.2) h | λz ([2]; 800 mg single dose): 0.128 (73.6) h^−1 | t1/2 ([2]; 800 mg single dose): 10.3 ± 9.72 h | Tmax ([2]; 800 mg single dose): 1.5 (1.0, 3.0) h | AUC0-t ([2]; 1,600 mg single dose): 29,100 (24.1) ng·h/mL | AUC0-∞ ([2]; 1,600 mg single dose): 29,100 (24.1) ng·h/mL | Cmax ([2]; 1,600 mg single dose): 6,180 (20.1) ng/mL | MRT0-∞ ([2]; 1,600 mg single dose): 5.94 (13.4) h | λz ([2]; 1,600 mg single dose): 0.139 (22.4) h^−1 | t1/2 ([2]; 1,600 mg single dose): 5.22 ± 1.16 h | Tmax ([2]; 1,600 mg single dose): 1.5 (1.0, 4.0) h | plasma concentration reached a steady state by ([3]; 400 mg TID): ≤ 2 days | AUC0-t ([3]; 400 mg TID, Day 1, mean (%CV)): 9,720 (36) ng·h/mL | AUC0-tau ([3]; 400 mg TID, Day 1, mean (%CV)): 10,600 (30.4) ng·h/mL | AUC0-∞ ([3]; 400 mg TID, Day 1, mean (%CV)): 13,300 (32) ng·h/mL | Cmax ([3]; 400 mg TID, Day 1, mean (%CV)): 3,450 (37.2) ng/mL | MRT0-∞ ([3]; 400 mg TID, Day 1, mean (%CV)): 3.93 (16.5) h | t1/2 ([3]; 400 mg TID, Day 1): 2.31 ± 0.465 h | Tmax ([3]; 400 mg TID, Day 1, median (range)): 1.5 (1.0, 2.0) h | AUC0-t ([3]; 400 mg TID, Day 5, mean (%CV)): 15,400 (32.5) ng·h/mL | AUC0-tau ([3]; 400 mg TID, Day 5, mean (%CV)): 10,000 (36) ng·h/mL | AUC0-∞ ([3]; 400 mg TID, Day 5, mean (%CV)): 15,500 (32.2) ng·h/mL | Cmax ([3]; 400 mg TID, Day 5, mean (%CV)): 2,700 (32.3) ng/mL | Cmin,ss ([3]; 400 mg TID, Day 5, mean (%CV)): 382 ng/mL and 382 (44.9) ng/mL | MRT0-∞ ([3]; 400 mg TID, Day 5, mean (%CV)): 6.23 (18.9) h | t1/2 ([3]; 400 mg TID, Day 5): 9.61 ± 2.26 h | Tmax ([3]; 400 mg TID, Day 5, median (range)): 1.5 (1.0, 3.0) h | Tmax ([3]; 400 mg TID, continuous administration): 1.5 h | plasma concentrations reached a steady state by ([3]; 300, 500 or 700 mg with 100 mg ritonavir BID): ≤ 2 days
